From PMC11545999, “Angular-Substituted [1,4]Thiazino[3,4-a]Isoquinolines: Biological Evaluation and In Silico Studies on DPP-IV Inhibition” (International Journal of Molecular Sciences, 2024)

molecular target: T1, DPP-IV (Homo sapiens, UniProt P27487); experiment: fluorogenic AMC substrate cleavage assay (SensoLyte AMC DPP-IV Assay Kit); assay type: biochemical
T1 construct: gene DPP4
T1 sequence (P27487 39-766): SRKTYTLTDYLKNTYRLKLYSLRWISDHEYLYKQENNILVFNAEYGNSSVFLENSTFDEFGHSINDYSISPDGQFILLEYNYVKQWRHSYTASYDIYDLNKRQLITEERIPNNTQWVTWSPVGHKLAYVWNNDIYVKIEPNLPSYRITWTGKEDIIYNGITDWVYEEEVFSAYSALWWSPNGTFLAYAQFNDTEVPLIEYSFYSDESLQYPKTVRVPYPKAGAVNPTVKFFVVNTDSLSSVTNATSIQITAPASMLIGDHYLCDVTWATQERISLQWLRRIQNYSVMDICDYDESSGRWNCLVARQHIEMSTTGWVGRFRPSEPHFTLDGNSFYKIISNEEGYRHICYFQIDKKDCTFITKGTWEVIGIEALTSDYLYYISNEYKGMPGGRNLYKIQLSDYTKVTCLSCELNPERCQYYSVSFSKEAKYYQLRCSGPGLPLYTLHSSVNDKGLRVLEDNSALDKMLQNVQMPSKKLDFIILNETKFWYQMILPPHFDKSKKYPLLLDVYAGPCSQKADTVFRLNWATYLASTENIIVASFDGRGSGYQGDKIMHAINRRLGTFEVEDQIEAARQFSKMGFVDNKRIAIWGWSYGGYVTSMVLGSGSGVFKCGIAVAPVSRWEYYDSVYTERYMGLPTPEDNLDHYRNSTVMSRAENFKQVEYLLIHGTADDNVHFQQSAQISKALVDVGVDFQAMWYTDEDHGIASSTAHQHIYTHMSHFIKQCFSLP

Going from `COc1cc2c(cc1OC)[C@@]1(c3ccc(C(F)(F)F)cc3)[C@@H](C(=O)O)SCC(=O)N1CC2` (relative stereo) [4f] to `COc1cc2c(cc1OC)[C@@]1(c3ccc(F)cc3)[C@@H](C(=O)O)SCC(=O)N1CC2` (relative stereo) [4g], the IC50 falls from 15.9 µM to 0.35 µM (45-fold). The second is the more potent here.

With `COc1cc2c(cc1OC)C1C(C(=O)O)SCC(=O)N1CC2` (stereo not drawn) [4a] the IC50 was 41.1 µM.
